Test results from PMC12155096 (International Journal of Molecular Sciences, 2025).
Where a name gives a salt, the structure may show the parent alone. Read-outs that look alike come from different tables or passages of the source.

Experiments:
human CYP1A2 = target: T1, human CYP1A2 (Homo sapiens, UniProt P05177)
T1 sequence (P05177 1-516): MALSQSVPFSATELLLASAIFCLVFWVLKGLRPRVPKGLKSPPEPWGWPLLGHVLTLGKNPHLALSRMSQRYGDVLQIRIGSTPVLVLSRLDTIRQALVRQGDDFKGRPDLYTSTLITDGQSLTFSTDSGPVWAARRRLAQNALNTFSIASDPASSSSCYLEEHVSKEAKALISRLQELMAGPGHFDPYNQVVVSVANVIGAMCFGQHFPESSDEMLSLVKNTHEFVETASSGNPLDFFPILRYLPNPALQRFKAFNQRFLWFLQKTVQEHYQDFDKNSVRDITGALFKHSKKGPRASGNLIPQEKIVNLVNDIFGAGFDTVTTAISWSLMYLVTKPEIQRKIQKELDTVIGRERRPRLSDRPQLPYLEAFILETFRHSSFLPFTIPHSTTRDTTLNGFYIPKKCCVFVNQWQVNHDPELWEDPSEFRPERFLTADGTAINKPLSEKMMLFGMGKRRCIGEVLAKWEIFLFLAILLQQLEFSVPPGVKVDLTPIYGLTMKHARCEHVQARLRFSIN

human CYP2D6 = human CYP2D6 (Homo sapiens, UniProt P10635)
human CYP2C19 [1] = target: T2, human CYP2C19 (Homo sapiens, UniProt P33261)
human CYP2C9 [2] = target: T3, human CYP2C9 (Homo sapiens, UniProt P11712)
human CYP2C19 [3] = target: T2, human CYP2C19; assay: biochemical
human CYP2C9 [4] = target: T3, human CYP2C9; assay: biochemical
[5] = CYP2C19 AC50 (half-maximal activity concentration)
[6] = CYP2C9 AC50 (half-maximal activity concentration)
[7] = CYP2C9 IC50 (half-maximal inhibitory concentration)

Chain of human CYP2D6 (P10635 whole entry): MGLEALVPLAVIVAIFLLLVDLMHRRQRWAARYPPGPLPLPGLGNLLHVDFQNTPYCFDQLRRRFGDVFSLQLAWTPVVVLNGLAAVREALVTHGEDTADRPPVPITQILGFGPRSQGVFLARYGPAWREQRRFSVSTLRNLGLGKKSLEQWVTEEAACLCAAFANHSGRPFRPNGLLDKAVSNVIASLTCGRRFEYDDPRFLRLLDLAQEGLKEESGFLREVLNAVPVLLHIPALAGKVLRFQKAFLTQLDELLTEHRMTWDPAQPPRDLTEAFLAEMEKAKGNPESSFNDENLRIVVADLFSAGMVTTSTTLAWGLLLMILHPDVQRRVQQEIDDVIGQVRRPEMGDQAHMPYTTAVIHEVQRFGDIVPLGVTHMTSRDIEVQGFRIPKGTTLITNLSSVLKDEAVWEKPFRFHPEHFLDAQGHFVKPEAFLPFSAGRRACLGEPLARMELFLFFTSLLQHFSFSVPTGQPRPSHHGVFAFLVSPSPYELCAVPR
T3 sequence (P11712 whole entry): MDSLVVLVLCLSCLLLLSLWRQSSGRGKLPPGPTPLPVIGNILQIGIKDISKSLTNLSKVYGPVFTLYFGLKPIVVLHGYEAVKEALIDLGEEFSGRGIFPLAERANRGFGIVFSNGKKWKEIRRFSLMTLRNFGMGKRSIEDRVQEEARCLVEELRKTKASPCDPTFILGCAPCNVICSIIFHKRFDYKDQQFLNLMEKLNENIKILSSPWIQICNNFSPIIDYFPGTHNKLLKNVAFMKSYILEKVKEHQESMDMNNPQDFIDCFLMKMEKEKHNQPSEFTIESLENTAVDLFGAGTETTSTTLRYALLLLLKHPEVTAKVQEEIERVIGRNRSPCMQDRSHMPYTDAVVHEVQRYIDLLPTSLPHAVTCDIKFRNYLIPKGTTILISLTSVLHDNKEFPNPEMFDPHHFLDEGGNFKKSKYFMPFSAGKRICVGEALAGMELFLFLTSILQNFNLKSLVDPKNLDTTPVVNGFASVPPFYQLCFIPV
T2 sequence (P33261 whole entry): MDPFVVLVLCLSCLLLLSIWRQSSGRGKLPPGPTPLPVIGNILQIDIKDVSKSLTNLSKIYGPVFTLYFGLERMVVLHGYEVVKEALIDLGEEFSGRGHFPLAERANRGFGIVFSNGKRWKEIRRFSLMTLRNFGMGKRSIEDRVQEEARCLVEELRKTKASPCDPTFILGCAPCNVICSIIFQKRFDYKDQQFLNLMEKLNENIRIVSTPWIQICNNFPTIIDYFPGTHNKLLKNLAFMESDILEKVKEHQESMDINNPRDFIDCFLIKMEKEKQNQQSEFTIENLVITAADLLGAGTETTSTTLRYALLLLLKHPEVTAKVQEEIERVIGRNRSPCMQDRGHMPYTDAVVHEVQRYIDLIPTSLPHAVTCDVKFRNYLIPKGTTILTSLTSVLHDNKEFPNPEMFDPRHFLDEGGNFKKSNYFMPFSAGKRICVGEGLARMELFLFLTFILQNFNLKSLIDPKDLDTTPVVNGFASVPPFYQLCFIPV

Structure (SMILES): Nc1nc2ccccc2n1Cc1ccc(F)cc1
- CYP1A2 Efficacy (in parenthesis) (human CYP1A2): 19.77 ± 4.14 (-57 ± 9) %
- IC50 (human CYP1A2): 19.8 µM
- CYP2D6 Efficacy (in parenthesis) (human CYP2D6): 0.67 ± 0.04 (-102 ± 1) %
- IC50 (human CYP2D6): 0.67 µM
- CYP2C19 Efficacy (in parenthesis) (human CYP2C19 [1]): 17.62 ± 3.69 (-115 ± 18) %
- IC50 (human CYP2C19 [1]): 17.6 µM

Structure (SMILES): CCC(OC(C)=O)C(CC(C)NC)(c1ccccc1)c1ccccc1.Cl (stereo not drawn)
- CYP2C9 Efficacy (in parenthesis) (human CYP2C9 [2]): 63.02 ± 38.37 (-35 ± 6) %
- IC50 (human CYP2C9 [2]): 63 µM
- CYP2D6 Efficacy (in parenthesis) (human CYP2D6): 15.52 ± 2.14 (-95 ± 2) %
- IC50 (human CYP2D6): 15.5 µM
- CYP2C19 Efficacy (in parenthesis) (human CYP2C19 [1]): 21.99 ± 10.33 (-95 ± 7) %
- IC50 (human CYP2C19 [1]): 22 µM

Structure (SMILES): Cc1cc(-c2cc(C)c(N)c(C)c2)cc(C)c1N [3,3'.5,5'-Tetramethylbenzidine]
- IC50 (human CYP1A2): 0.45 µM

Structure (SMILES): CCC(C)(C)c1ccc(O)cc1 [4-(2-Methylbutan-2-yl)phenol]
- AC50 (human CYP2C19 [3]; [5]): 4.21 µM
- AC50 (human CYP2C9 [4]; [6]): 14.8 µM

Structure (SMILES): Sc1ncnc2nc[nH]c12 [6-Mercaptopurine]
- AC50 (human CYP2C19 [3]; [5]): 34.7 µM
- AC50 (human CYP2C9 [4]; [6]): 22 µM

Structure (SMILES): COc1c2occc2cc2ccc(=O)oc12 [8-Methoxypsoralen]
- CYP2C9 Efficacy (in parenthesis) (human CYP2C9 [2]; human): 7.56 ± 2.14 (-95 ± 11) %
- CYP2D6 Efficacy (in parenthesis) (human CYP2D6; human): 7.42 ± 0.95 (-106 ± 2) %
- IC50 (human CYP2C9 [4]; [7]): 7.56 µM
- CYP2C19 Efficacy (in parenthesis) (human CYP2C19 [1]; human): 12.67 ± 4.61 (-156 ± 24) %

Structure (SMILES): C[C@]12CCC(=O)C=C1CC[C@@H]1[C@@H]2CC[C@@]2(C)[C@H]1CC[C@]2(C)O [17-Methyltestosterone]
- AC50 (human CYP2C9 [4]; [6]): 32.7 µM

Structure (SMILES): CCC(=O)O[C@]1(C(=O)COC)[C@@H](C)C[C@H]2[C@@H]3CCC4=CC(=O)C=C[C@]4(C)[C@@]3(F)[C@@H](O)C[C@@]21C [Amelometasone]
- IC50 (human CYP2C9 [2]): 26 µM
- IC50 (human CYP2D6): 19.5 µM
- IC50 (human CYP2C19 [1]): 43.6 µM

Structure (SMILES): O=C(Nc1ccc(S(=O)(=O)N2CCOCC2)cc1)c1cc(Cl)ccc1NS(=O)(=O)c1ccc(Cl)s1 [Ataciguat]
- CYP2C9 Efficacy (in parenthesis) (human CYP2C9 [2]; human): 0.05 ± 0.01 (-98 ± 7) %
- IC50 (human CYP2C19 [3]): 41.3 ± 3.36 µM
- IC50 (human CYP2C9 [4]): 0.05 ± 0.01 µM
- CYP2C19 Efficacy (in parenthesis) (human CYP2C19 [1]; human): 41.28 ± 3.36 (-131 ± 15) %

Structure (SMILES): COC(=O)N[C@H](C(=O)N[C@@H](Cc1ccccc1)[C@@H](O)CN(Cc1ccc(-c2ccccn2)cc1)NC(=O)[C@@H](NC(=O)OC)C(C)(C)C)C(C)(C)C [Atazanavir]
- IC50 (human CYP2C19 [3]): 36.4 ± 6.55 µM
- IC50 (human CYP2C9 [4]): 15.5 µM

Structure (SMILES): CC(C)(c1ccc(O)cc1)c1ccc(O)cc1 [Bisphenol A]
- AC50 (human CYP2C19 [3]; [5]): 20 µM
- AC50 (human CYP2C9 [4]; [6]): 29.1 µM

Structure (SMILES): CC(C)C[C@H]1C(=O)N2CCC[C@H]2[C@]2(O)O[C@](NC(=O)[C@@H]3C=C4c5cccc6[nH]c(Br)c(c56)C[C@H]4N(C)C3)(C(C)C)C(=O)N12 [Bromocriptine mesylate]
- IC50 (human CYP2C19 [3]; CYP2C19 IC50 (half-maximal inhibitory concentration)): 20.8 µM
- IC50 (human CYP2C9 [4]; [7]): 7.32 µM

Structure (SMILES): CC(C)C[C@H](NC(=O)[C@H](CCc1ccccc1)NC(=O)CN1CCOCC1)C(=O)N[C@@H](Cc1ccccc1)C(=O)N[C@@H](CC(C)C)C(=O)[C@@]1(C)CO1 [Carfilzomib]
- IC50 (human CYP2C9 [4]; [7]): 29.2 µM

Structure (SMILES): O=C1c2ccccc2C(=O)C1C(=O)C(c1ccccc1)c1ccc(Cl)cc1 (stereo not drawn) [Cholorophacinone]
- IC50 (human CYP2C9 [2]): 0.9 µM

Structure (SMILES): CC1(C)C(C=C(Cl)Cl)C1C(=O)OC(C#N)c1cccc(Oc2ccccc2)c1 (stereo not drawn) [Cypermethrin]
- AC50 (human CYP2C19 [3]; [5]): 24.6 µM
- AC50 (human CYP2C9 [4]; [6]): 11.9 µM

Structure (SMILES): CC(=O)O[C@]1(C(C)=O)CC[C@H]2[C@@H]3C=C(Cl)C4=CC(=O)[C@@H]5C[C@@H]5[C@]4(C)[C@H]3CC[C@@]21C [Cyproterone acetate]
- CYP1A2 AC50 (half-maximal activity concentration) (human CYP1A2): Inactive
- CYP2D6 AC50 (half-maximal activity concentration) (human CYP2D6): Inactive
- AC50 (human CYP2C9 [4]; [6]): 15 µM
- CYP2C19 AC50 (half-maximal activity concentration) (human CYP2C19 [1]): Inconclusive inhibitor

Structure (SMILES): CCCCCCCCCC(=O)O [Decanoic acid]
- AC50 (human CYP2C9 [4]; [6]): 69.7 µM

Structure (SMILES): C[C@]12CCC(=O)C=C1[C@@H]1C[C@@H]1[C@H]1[C@@H]3[C@@H]4C[C@@H]4[C@@]4(CCC(=O)O4)[C@@]3(C)CC[C@@H]12 [Drospirenone]
- AC50 (human CYP2C19 [3]): 1.17 ± 0.35 µM
- AC50 (human CYP2C9 [4]): 26.4 ± 7.81 µM

Structure (SMILES): CC(=O)Oc1ccc2c(c1)CC[C@@H]1[C@@H]2CC[C@]2(C)[C@@H](O)CC[C@@H]12 [Estradiol acetate]
- AC50 (human CYP2C19 [3]): 20.6 ± 4.65 µM

Structure (SMILES): CCCSP(=O)(OCC)SCCC [Ethoprop]
- AC50 (human CYP2C19 [3]; [5]): 20 µM
- AC50 (human CYP2C9 [4]; [6]): 37 µM

Structure (SMILES): O=C(O)Cc1ccccc1Oc1ccc(Cl)cc1Cl [Fenclofenac]
- AC50 (human CYP2C9 [4]): 29.7 ± 12.5 µM

Structure (SMILES): O=C(O)c1ccccc1Nc1cccc(C(F)(F)F)c1 [Flufenamic acid]
- AC50 (human CYP2C9 [4]): 23.9 ± 9.43 µM

Structure (SMILES): Fc1ccc(C(c2ccc(F)cc2)N2CCN(C/C=C/c3ccccc3)CC2)cc1 [Flunarizine]
- AC50 (human CYP2C9 [4]; [6]): 14.9 µM

Structure (SMILES): COc1ccc(S(=O)(=O)Nc2nnc(CC(C)C)s2)cc1 [Glysobuzole]
- AC50 (human CYP2C9 [4]; [6]): 12.5 µM

Structure (SMILES): Cl[C@H]1[C@H](Cl)[C@@H](Cl)[C@@H](Cl)[C@H](Cl)[C@H]1Cl [Lindane]
- AC50 (human CYP2C19 [3]; [5]): 35.7 µM
- AC50 (human CYP2C9 [4]; [6]): 43.2 µM

Structure (SMILES): O=C(O)Cn1c(C(=O)Nc2nc(-c3ccccc3Cl)cs2)cc2ccccc21 [Lintitript]
- AC50 (human CYP2C9 [4]; [6]): 35.1 µM

Structure (SMILES): CN(C)C(=O)C(CCN1CCC(O)(c2ccc(Cl)cc2)CC1)(c1ccccc1)c1ccccc1 [Loperamide hydrochloride]
- AC50 (human CYP2C19 [3]; [5]): 40.5 µM
